{"source": "patent US20250276962A1", "about": "“CONTRACEPTIVE COMPOUNDS AND METHODS” (Regents of the University of Minnesota, priority 2021, published 2025)", "key": {"[1]": {"assay": "Stability in rabbit liver microsomes", "type": "in vitro ADME", "settings": "read-out: Half-life (T1/2) Liver microsomes (Phase I metabolism) (converted)"}, "[2]": {"assay": "Solubility in saline and 50% carbitol", "type": "physicochemical"}, "KCNQ1": {"system": "KCNQ1", "assay": "in vitro", "type": "cell-based"}, "in vitro [3]": {"assay": "in vitro", "settings": "human hepatocytes"}, "in vitro [4]": {"assay": "in vitro", "settings": "mouse hepatocytes"}, "[5]": {"assay": "Solubility in PBS at pH 7.4", "type": "physicochemical"}, "[6]": {"assay": "Single dose toxicity, rat", "settings": "Sprague-Dawley, in vivo, Maximum tolerated dose (MTD), Sprague-Dawley rats, highest dose level tested"}, "[7]": {"assay": "Stability in rat hepatocytes", "type": "in vitro ADME", "settings": "read-out: Half-life (T1/2) Hepatocytes (Phase I and Phase II metabolism) (converted)"}, "hERG": {"target": "hERG (Homo sapiens, UniProt Q12809)", "sequence (Q12809 whole entry)": "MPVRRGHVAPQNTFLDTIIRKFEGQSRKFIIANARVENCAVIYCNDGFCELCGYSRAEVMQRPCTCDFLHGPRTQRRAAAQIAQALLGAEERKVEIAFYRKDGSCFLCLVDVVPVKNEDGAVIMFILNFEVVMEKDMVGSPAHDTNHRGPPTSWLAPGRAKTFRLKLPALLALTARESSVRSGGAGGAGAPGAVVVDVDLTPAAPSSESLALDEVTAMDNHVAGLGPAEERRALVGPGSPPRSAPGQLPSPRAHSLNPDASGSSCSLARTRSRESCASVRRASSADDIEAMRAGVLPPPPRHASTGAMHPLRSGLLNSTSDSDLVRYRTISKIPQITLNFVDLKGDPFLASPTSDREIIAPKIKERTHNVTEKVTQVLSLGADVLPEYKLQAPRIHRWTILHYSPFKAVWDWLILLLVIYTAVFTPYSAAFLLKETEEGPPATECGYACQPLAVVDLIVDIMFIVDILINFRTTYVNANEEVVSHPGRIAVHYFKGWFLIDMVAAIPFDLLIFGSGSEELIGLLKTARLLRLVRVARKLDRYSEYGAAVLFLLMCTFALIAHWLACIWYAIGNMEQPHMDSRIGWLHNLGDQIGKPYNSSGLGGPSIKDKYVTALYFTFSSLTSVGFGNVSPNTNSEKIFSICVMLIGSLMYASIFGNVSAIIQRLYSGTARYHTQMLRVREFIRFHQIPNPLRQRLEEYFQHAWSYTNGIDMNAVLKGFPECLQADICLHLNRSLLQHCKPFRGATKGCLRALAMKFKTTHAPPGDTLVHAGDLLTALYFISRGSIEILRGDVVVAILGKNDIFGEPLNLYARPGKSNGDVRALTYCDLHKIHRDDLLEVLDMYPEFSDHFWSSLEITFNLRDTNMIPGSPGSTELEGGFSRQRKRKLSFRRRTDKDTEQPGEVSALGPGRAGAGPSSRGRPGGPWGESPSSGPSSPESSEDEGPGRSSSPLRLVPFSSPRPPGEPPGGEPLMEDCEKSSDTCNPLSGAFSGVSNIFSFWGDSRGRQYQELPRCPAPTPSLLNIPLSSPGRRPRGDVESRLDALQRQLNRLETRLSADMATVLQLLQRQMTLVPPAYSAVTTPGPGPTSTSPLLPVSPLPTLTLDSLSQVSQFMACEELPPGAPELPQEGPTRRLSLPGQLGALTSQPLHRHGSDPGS", "assay": "in vitro", "settings": "human", "description": "(§1) The potential inhibitory effect on human Ether-á-go-go related gene (hERG) channel was evaluated using a manual patch-clamp system. A HEK293 cell line stably transfected with hERG gene was employed."}, "[8]": {"target": "human Ether-á-go-go related gene (hERG) channel (Homo sapiens, UniProt Q12809)", "sequence (Q12809 whole entry)": "as above", "assay": "cell-based", "description": "as §1"}, "[9]": {"assay": "Repeat dose PK (14 days), rat", "type": "in vivo", "settings": "male, Sprague-Dawley, plasma, oral, Day 14, read-out: AUC0-48"}, "Single dose PK, mouse": {"assay": "Single dose PK, mouse", "type": "in vivo", "excerpt": "Single dose pharmacokinetics (PK) studies at therapeutic dose levels: Presented are area under the curve (AUC) values to better compare exposure levels between species.\n[…]. […] This value serves as the basis to calculate multiples over efficacy across species."}, "[10]": {"assay": "not given", "remark": "listed apart in the source"}, "[11]": {"assay": "Stability in monkey hepatocytes", "type": "in vitro ADME", "settings": "read-out: Half-life (T1/2) Hepatocytes (Phase I and Phase II metabolism) (converted)"}, "in vivo": {"assay": "in vivo", "settings": "male, Beagle, dog, oral"}, "[12]": {"assay": "Stability in rat liver microsomes", "type": "in vitro ADME", "settings": "read-out: Half-life (T1/2) Liver microsomes (Phase I metabolism)"}, "[13]": {"assay": "not given", "remark": "listed apart in the source"}, "[14]": {"assay": "Stability in monkey liver microsomes", "type": "in vitro ADME", "settings": "read-out: Half-life (T1/2) Liver microsomes (Phase I metabolism) (converted)"}}, "note": "Like-named read-outs stand apart in the source and are kept apart here.", "data": [{"smiles": "Cc1ccc(C2=CC(C)(C)Oc3ccc(-c4ccc(-c5ccc(C(=O)[O-])cc5)[nH]4)cc32)cc1.[Na+]", "note": "[Example 1, Sodium 4-(5-(2,2-dimethyl-4-(p-tolyl)-2H-chromen-6-yl)-1H-pyrrol-2-yl)benzoate]", "values": [{"measurement": "half-life", "setting": "[1]", "result": 19.6, "unit": "h"}, {"measurement": "solubility", "setting": "[2]; 50% carbitol [2-(2-ethoxyethoxy)ethanol], aqueous with cosolvent or surfactant or cyclodextrin, in 50% carbitol [2-(2-ethoxyethoxy)ethanol, read-out: Solubility", "result": "> 100", "unit": "mg/mL"}, {"measurement": "solubility", "setting": "[2]; saline, saline or isotonic, in saline, read-out: Solubility", "result": "≤ 100", "unit": "mg/mL"}, {"measurement": "solubility", "setting": "[2]; saline, saline or isotonic, saline, read-out: Solubility (saline)", "result": 2, "unit": "mg/mL"}, {"measurement": "inhibition at 10 µM", "setting": "KCNQ1", "result": 22.8, "unit": "%"}, {"measurement": "CLint scaled", "setting": "in vitro [3]", "result": 6.75, "unit": "mL/min/kg"}, {"measurement": "Tolerability", "setting": "male Beagle dogs; dog, in vivo, 50 mg/kg/day", "result": "not tolerated"}, {"measurement": "Tolerability", "setting": "male Beagle dogs; dog, in vivo, 100 mg/kg/day", "result": "one dog did not show any signs of toxicity"}, {"measurement": "Tolerability", "setting": "male Beagle dogs; dog, in vivo, po, 25 mg/kg/day", "result": "tolerated well"}, {"measurement": "Tolerated dose on repeated dosing for 14 days", "setting": "male Beagle dogs; dogs", "result": 25, "unit": "mg/kg"}, {"measurement": "Tolerability", "setting": "male Beagle dogs; male, Beagle, dog, in vivo, 100 mg/kg/day, 14 days", "result": "The other dog lost weight as of Day 12 until termination"}, {"measurement": "Safety margin", "setting": "male Beagle dogs; male, Beagle, dog, in vivo, 14 days", "result": "at least 10 ×"}, {"measurement": "Half-life (T1/2) Hepatocytes (Phase I and Phase II metabolism)", "setting": "mouse", "result": 4.8, "unit": "h"}, {"measurement": "In vitro Clint (μL/min/10^6 cells)", "setting": "mouse hepatocytes", "result": 4.79, "unit": "μL/min/10^6 cells"}, {"measurement": "In vitro T1/2", "setting": "mouse hepatocytes", "result": 4.826, "unit": "h"}, {"measurement": "CLint scaled", "setting": "in vitro [4]", "result": 56.5, "unit": "mL/min/kg"}, {"measurement": "solubility", "setting": "[5]", "result": 78.57, "unit": "µM"}, {"measurement": "MTD", "setting": "[6]", "result": 750, "unit": "mg/kg"}, {"measurement": "half-life", "setting": "[7]", "result": 7.9, "unit": "h"}, {"measurement": "inhibition at 3.33 µM", "setting": "hERG; % of hERG inhibition Cell 1, 3.33 μM", "result": 6.99, "unit": "%"}, {"measurement": "inhibition at 10 µM", "setting": "hERG; % of hERG inhibition Cell 1, 10.00 μM", "result": 19.5, "unit": "%"}, {"measurement": "inhibition at 30 µM", "setting": "hERG; % of hERG inhibition Cell 1, 30.00 μM", "result": 35.9, "unit": "%"}, {"measurement": "inhibition at 3.33 µM", "setting": "hERG; % of hERG inhibition Cell 2, 3.33 μM", "result": 16.4, "unit": "%"}, {"measurement": "inhibition at 10 µM", "setting": "hERG; % of hERG inhibition Cell 2, 10.00 μM", "result": 20.2, "unit": "%"}, {"measurement": "inhibition at 30 µM", "setting": "hERG; % of hERG inhibition Cell 2, 30.00 μM", "result": 43.2, "unit": "%"}, {"measurement": "inhibition at 3.33 µM", "setting": "hERG; Average % of hERG inhibition, 3.33 μM", "result": 11.7, "unit": "%"}, {"measurement": "inhibition at 10 µM", "setting": "hERG; Average % of hERG inhibition, 10.00 μM", "result": 19.9, "unit": "%"}, {"measurement": "IC50", "setting": "[8]", "result": "> 30", "unit": "µM"}, {"measurement": "hERG inhibitor ranking", "setting": "[8]; human", "result": "The compound of Example lis not considered an hERG inhibitor. The IC50 in hERG-"}, {"measurement": "IC50", "setting": "[8]; read-out: hERG IC50, hERG-transfected HEK293 cells", "result": "> 30", "unit": "µM"}, {"measurement": "IC50", "setting": "[8]; read-out: hERG IC50, hERG-transfected HEK293 cells, patch clamp", "result": "> 30", "unit": "µM"}, {"measurement": "AUC(0-t)", "setting": "[9]; Rat 25 mg/kg/day", "result": 78800, "unit": "ng·h/mL"}, {"measurement": "AUC(0-t)", "setting": "[9]; Rat 50 mg/kg/day", "result": 91100, "unit": "ng·h/mL"}, {"measurement": "AUC0-inf in plasma", "setting": "Single dose PK, mouse; male CD-1 mice, single 10 mg/kg dose", "result": "6,681 h*(ng/mL)"}, {"measurement": "AUC(0-inf)", "setting": "Single dose PK, mouse; male, CD-1, plasma, Mouse 10 mg/kg, single dose", "result": 6680, "unit": "ng·h/mL"}, {"measurement": "AUC(0-t)", "setting": "Single dose PK, mouse; male, CD-1, plasma, Mouse 10 mg/kg, read-out: AUC0-48", "result": 6580, "unit": "ng·h/mL"}, {"measurement": "Safety margin", "setting": "male Sprague-Dawley rats; male, Sprague-Dawley, rat, in vivo, 14 days", "result": "at least 10 ×"}, {"measurement": "Tolerability after dose reduction to 75 mg/kg", "setting": "male Sprague-Dawley rats; rat, in vivo", "result": "overall health and activity improved, they gained weight, and had normal CBC and clinical chemistry"}, {"measurement": "Tolerability", "setting": "male Sprague-Dawley rats; rat, in vivo, 250 mg/kg/day", "result": "not tolerated"}, {"measurement": "Tolerability", "setting": "male Sprague-Dawley rats; rat, in vivo, po, 25 mg/kg/day", "result": "tolerated well"}, {"measurement": "Tolerability", "setting": "male Sprague-Dawley rats; rat, in vivo, po, 50 mg/kg/day", "result": "tolerated well"}, {"measurement": "Tolerated dose on repeated dosing for 14 days", "setting": "male Sprague-Dawley rats; rats", "result": "50 to 75", "unit": "mg/kg"}, {"measurement": "Half-life (T1/2) Liver microsomes (Phase I metabolism)", "setting": "[10]; human", "result": 9.5, "unit": "h"}, {"measurement": "CLint (μL/min/mg protein)", "setting": "[10]; pooled human liver microsomes", "result": 2.43, "unit": "μL/min/mg protein"}, {"measurement": "T1/2", "setting": "[10]; pooled human liver microsomes", "result": 9.494, "unit": "h"}, {"measurement": "half-life", "setting": "[11]", "result": 3.2, "unit": "h"}, {"measurement": "MTD at 2 weeks", "setting": "in vivo", "result": 25, "unit": "mg/kg"}, {"measurement": "half-life", "setting": "[12]", "result": "> 23.1", "unit": "h"}, {"measurement": "Half-life (T1/2) Hepatocytes (Phase I and Phase II metabolism)", "setting": "[13]; human", "result": 8.7, "unit": "h"}, {"measurement": "In vitro Clint (μL/min/10^6 cells)", "setting": "[13]; human hepatocytes", "result": 2.65, "unit": "μL/min/10^6 cells"}, {"measurement": "In vitro T1/2", "setting": "[13]; human hepatocytes", "result": 8.706, "unit": "h"}, {"measurement": "half-life", "setting": "[14]", "result": 23.1, "unit": "h"}]}]}
